Results as given in publication PMC12056667 (Chemical Science, 2025).
Where two headings read alike, the source gives them in different places.

Legend:
Tet(X4) [1] = target: T1, Tet(X4) (Escherichia coli, UniProt A0A3T0V9Y5); assay: biochemical
Procedure: We then tested the binding of reported type 1 TDase inhibitors to Tet(X4) (Fig. 3f, ESI Fig. S17 ^†).[33,38,39] […] We also developed a complementary endpoint activity assay where the turnover of tigecycline by Tet(X4) in a 96-well plate was quenched by addition of 1%v/v formic acid and analysed chromatographically. The peak integrals of tigecycline and its hydroxylated degradation product at 254 nm following UPLC analysis were measured to determine turnover (Fig. 5a).
[…] A 3-fold, 10-point dilution series of the substrates and inhibitors was made in DMSO with a top concentration of 10 mM, unless otherwise stated, and transferred to the enzyme solution using a CyBi-Well liquid-handling robot (CyBio), 1 μL per well. On each plate, a column of no enzyme negative controls and no inhibitor (DMSO only) positive controls were included. The plate was incubated at 30 °C for 15 min. A solution containing 100 mM TAPS (pH 8.5), 40 μM tigecycline and 200 μM NADPH was then dispensed, with 49 μL per well. The plate was incubated at 30 °C for 20 min at 600 rpm. 10 μL of 10%v/v formic acid solution was then dispensed into all wells. Samples were analysed using an ACQUITY H-Class PLUS UPLC instrument (Waters) equipped with a pre-equilibrated ACQUITY BEH C18 column ([…], […], Waters) using a gradient of 1–50%v/v acetonitrile with 0.1%v/v formic acid in water with 0.1%v/v formic acid over 1.83 minutes at a flow rate of 0.5 mL min^−1. Instrument control and data processing were performed using MassLynx V4.1 software. The peaks representing tigecycline and 11a-hydroxy-tigecycline were integrated, used to calculate % conversion and then normalised between positive and negative controls. The normalised % response was plotted as a function of log10[Inhibitor], and the IC50 determined as described above.

Tet(X4) [2] = target: T1, Tet(X4); assay: FP competitive displacement of probe 6; assay type: binding; conditions: for IC50: 25 nM 6, 40 nM Tet(X4), 5 mM MgCl2, 1 μM FAD, 100 mM Tris pH 7.0, 0.01% Triton X-100; for displacement of probe 6 / competitive binding (in words): up to a maximum concentration of 100 μM
Procedure: A 2× solution containing 80 nM Tet(X4), 2 μM FAD and 10 mM MgCl2 in the assay buffer was dispensed into the first 22 columns of a 384-well black, non-binding microtiter plate (Greiner Bio-One), 12.5 μL per well, using a microplate reagent dispenser. A solution of 2 μM FAD and 10 mM MgCl2 in the assay buffer was dispensed into the remaining columns to serve as a no enzyme control. A 3-fold, 10-point dilution series of substrates and inhibitors was made in DMSO in a V-bottom 96-well plate (Greiner Bio-One) with a highest concentration of 5 mM or 0.5 mM. Into one column was added DMSO with no inhibitor or substrate, to serve as a positive control. Tigecycline was included as a reference on every plate to ensure reproducibility. 0.5 μL of each dilution was transferred in quadruplicate to the 384-well plate containing enzyme solution using a CyBi-Well liquid-handling robot (CyBio). A solution of 50 nM 6 in the assay buffer was then dispensed, with 12.5 μL per well. The plate was briefly centrifuged (1000 rpm), then incubated at ambient temperature for 30 min prior to measuring the FP. Data points were normalised between the positive and negative controls. Normalised % response was plotted as a function of log10([Inhibitor]), and the IC50^app was determined by fitting the data to the equation: Y = Bottom + (top-bottom)/(1 + 10^Log(IC50) − X) × HillSlope in GraphPad Prism 9.4.1, where Y = % response and X = log10([Inhibitor]). Wells with unusual fluorescence intensities were manually identified and removed from the analysis. […]

Tet(X4) [3] = target: T1, Tet(X4); assay: Absorbance activity assay (tigecycline turnover, A400); assay type: biochemical; conditions: for IC50: 25 μM tigecycline, 50 nM Tet(X4), 250 μM NADPH, 5 mM MgCl2, 1 μM FAD, 100 mM TAPS pH 8.5, read-out: IC50, Absorbance assay
Excerpt: We then tested the binding of reported type 1 TDase inhibitors to Tet(X4) (Fig. 3f, ESI Fig. S17 ^†).[33,38,39] […] These compounds gave similar apparent IC50^app values, in accord with trends in IC50 measurements performed by Markley et al.[33] […] We also developed a complementary endpoint activity assay where the turnover of tigecycline by Tet(X4) in a 96-well plate was quenched by addition of 1%v/v formic acid and analysed chromatographically. The peak integrals of tigecycline and its hydroxylated degradation product at 254 nm following UPLC analysis were measured to determine turnover (Fig. 5a). As this method separates components by chromatography, it enables IC50 measurements independent of potential interference from UV-active inhibitors (Fig. 5b). […] The apparent synergy of AZT with tetracyclines against whole cells expressing Tet(X4)[40] is therefore interesting and may derive from the proposed ability of AZT to interfere with DNA synthesis in bacteria,[40,53] or other unidentified mechanisms. […] Note, however, that plumbagin and 2-MNQ are naphthoquinones, which are well-characterised redox-active pan-assay interference (PAINS) moieties.[54]
233 Absorbance Activity Assays
234 A solution containing 100 mM TAPS (pH 8.5), 2 µM FAD, 10 mM MgCl2 and 100 nM Tet(X4) was
235 dispensed into a 384 well µClear plate (Greiner Bio-One), 25 µL per well, using a microplate reagent
236 dispenser. A 3-fold, 10-point dilution series of the substrates and inhibitors was made in DMSO with
237 the highest concentration of 50 mM, unless otherwise stated, and transferred to the enzyme solution in
238 technical quadruplicate using a CyBi-Well (CyBio) liquid-handling robot (1 µL per well). On each plate,
239 a column of no enzyme negative controls and no inhibitor (DMSO only) positive controls were
240 included. The plate was briefly centrifuged (1000 rpm), then incubated (ambient temperature,15 min).
241 A solution containing 100 mM TAPS (pH 8.5), 50 µM tigecycline and 500 µM NADPH was then
242 dispensed, with 25 µL per well. The plate was briefly centrifuged (1000 rpm), then transferred to a
243 CLARIOstar Plus Microplate reader. The absorbance was monitored at wavelength […] over the
244 course of 2 hours (23 flashes / cycle, 180 s cycle time, 41 data points, 25 ° C). The initial rate was
245 calculated by measuring the rate of change of A400 during the initial linear regime. Initial rates were
246 normalised between positive and negative controls. The normalised % response was plotted as a
247 function of log10([Inhibitor]) in molar units, and the IC50 was determined as above. […]

[4] = test system: E. coli TOP10 containing plasmid pBAD-TOPO-Tet(X4); assay: Broth microdilution MIC and checkerboard assay; assay type: cell-based, Escherichia coli; conditions: for MIC: Escherichia coli; for Combination (antibiotic/inhibitor) MIC: inhibitor: inhibitor in combination with tigecycline; for Combination (antibiotic/inhibitor) MIC: inhibitor / Combination (antibiotic/inhibitor) MIC: antibiotic: lowest FICI; for Combination (antibiotic/inhibitor) MIC: antibiotic: tigecycline in combination with the inhibitor; for FICI / Outcome: with tigecycline
Excerpt: Tet(X4) was sub-cloned from the Tet(X4) pET28b-(+) expression vector via TOPO cloning. The insert was amplified using the taq polymerase with the forward primer 5′- […]-3′ and the reverse primer 5′- […]-3’. Following PCR purification (Thermo Fisher Scientific), the A-tailed PCR product was ligated into the pBAD-TOPO vector using a TOPO cloning kit (Invitrogen) according to the manufacturer's protocol. Following amplification in E. coli NEB5α cells (NEBiolabs), the fidelity of the insert was confirmed by Sanger sequencing (Eurofins). For microbiological experiments, E. coli TOP10 cells were used as the recipient strain. Cells were plated on Mueller-Hinton agar (MHA) plates containing ampicillin at 100 μg mL^−1. The introduction of pBAD-TOPO-Tet(X4) was confirmed by colony PCR. Strains were stored in a freezer at −80 °C in cryopreservation beads.
MIC tests and checkerboard assays were performed in U-bottom, 96-well microtiter plates using a modified broth microdilution protocol following CLSI guidelines. Cation-adjusted Mueller-Hinton Broth (CAMHB) was prepared fresh on the day of testing.[74] […] Bacterial colonies were selected from an overnight culture on MHA plates (supplemented with 0.2%w/vL-arabinose for E. coli TOP10 containing pBAD-TOPO-Tet(X4)) and were suspended in 0.9% saline solution to achieve a 0.5 McFarland standard. A 100 μL aliquot of this suspension was then diluted into 9.9 mL of CAMHB to yield approximately 1.5 × 10^6 cfu mL^−1. 50 μL of the suspension was then added to each well of a microtiter plates. Plates were incubated at 37 °C for 18 h. At least 2 replicates were conducted for each combination. E. coli TOP10 + pBAD-TOPO-Tet(X4) cells were grown in the absence and presence of 0.2%w/vL-arabinose. Analysis of the MIC and checkerboard results were carried out by visual inspection of growth, with and without resazurin dye, an oxidation–reduction indicator.[75] As a measure of synergy, fractional inhibitory concentration index (FICI) was calculated as FICA + FICB, where FICA and FICB are the MICcombination/MICalone for each agent, respectively.[76] Results were interpreted as follows: synergistic (<0.5), indifferent (1.0–4.0) or antagonistic (>4.0).[64] In cases where the MIC exceeded or was below the measured range, the borderline value was taken to calculate the FIC index.

[5] = 20 μM tigecycline, 50 nM Tet(X4), 100 μM NADPH, 5 mM MgCl2, 1 μM FAD, 100 mM TAPS pH 8.5, read-out: IC50, UPLC assay
[6] = IC50app, Tet(X4) (Polarization)

Row | SMILES | IC50 (Tet(X4) [1]; [5]) | IC50 (Tet(X4) [2]; [6]) | also measured
1 | COC1=CC(=O)c2ccccc2C1=O [2-Methoxy-1,4-naphthoquinone] | > 100 µM |  | inhibition in the UPLC assay (in words) (Tet(X4) [1]; AZT up to 100 μM): weak; IC50 (Tet(X4) [2]; IC50app, FP assay): > 100 µM; displacement of probe 6 / competitive binding (in words) (Tet(X4) [2]): minimal competitive binding; IC50 (Tet(X4) [3]): 421 ± 50 µM; inhibition in the absorbance assay (in words) (Tet(X4) [3]; AZT up to 1 mM): weak
2 | Cc1c2c(c(O)c3c(O)c(Br)ccc13)C(=O)[C@@]1(O)C(=O)C(C(N)=O)=C(O)[C@@H](N(C)C)[C@@H]1C2 [9-Bromo-anhydrotetracycline] | 2.7 ± 0.5 µM |  | IC50 (Tet(X4) [2]; read-out: IC50app, FP assay): 0.0404 ± 0.0105 µM; displacement of probe 6 / competitive binding (in words) (Tet(X4) [2]): clear dose-dependent displacement; IC50 (Tet(X4) [3]): 4.5 ± 0.6 µM
3 | CN(C)CCCN1c2ccccc2Sc2ccc(Cl)cc21 [Chlorpromazine] | 110 ± 19 µM | > 100 µM | 
4 | O=c1c2ccccc2[se]n1-c1ccccc1 [Ebselen] | 4.7 ± 1.5 µM | 40.9 ± 11.4 µM | 
5 | Cn1cc(C2=C(c3cn(C4CCN(Cc5ccccn5)CC4)c4ccccc34)C(=O)NC2=O)c2ccccc21 [Enzastaurin] | > 100 µM | 27.8 ± 1.5 µM | 
6 | COc1ccc2c(c1)N(C[C@H](C)CN(C)C)c1ccccc1S2 [Levomepromazine] | > 100 µM | > 100 µM | 
7 | C=CC(=O)Nc1cccc(Oc2nc(Nc3ccc(N4CCN(C)CC4)cc3)nc3ccsc23)c1 [Olmutinib] | > 100 µM | 17.2 ± 3.4 µM | 
8 | CC(CN(C)C)CN1c2ccccc2S(=O)(=O)c2ccccc21 (stereo not shown) [Oxomemazine] | > 100 µM | > 100 µM | 
9 | c1ccc2c(c1)Nc1ccccc1S2 [Phenothiazine] | 128 ± 13 µM | > 100 µM | 
10 | CCCCC1C(=O)N(c2ccccc2)N(c2ccccc2)C1=O [Phenylbutazone] | > 100 µM | > 100 µM | 
11 | CN(C)CCCN1c2ccccc2Sc2ccccc21 [Promazine] | > 100 µM | > 100 µM | 
12 | CCN(CC)CCNC(=O)c1c(C)[nH]c(/C=C2\C(=O)Nc3ccc(F)cc32)c1C [Sunitinib] |  | 45.6 ± 4 µM | IC50 (Tet(X4) [1]; IC50, UPLC assay, 20 μM tigecycline, 50 nM Tet(X4), 100 μM NADPH, 5 mM MgCl2, 1 μM FAD, 100 mM TAPS pH 8.5): > 100 µM
13 | COc1cc(C)c2c(Oc3cccc(C(F)(F)F)c3)c(OC)cc(NC(C)CCCN)c2n1 (stereo not shown) [Tafenoquine] | 76 ± 2.4 µM | 94.9 ± 64.8 µM | MIC ([4]; read-out: Tet(X) Inhibitor MIC, alone, without L-arabinose induction): 16 µg/mL; MIC ([4]; read-out: Tet(X) inhibitor MIC, alone, induced with 0.2%w/v L-arabinose): 16 to 64 µg/mL; Tet(X) inhibitor MIC ([4]; alone, induced with 0.2%w/v L-arabinose): 16 µg/mL; reduction of the tigecycline MIC ([4]; at high concentrations of inhibitor, 0.2%w/v L-arabinose): 2–4 fold; Combination (antibiotic/inhibitor) MIC: inhibitor ([4]; 0.2%w/v L-arabinose): 4 µg/mL; Combination (antibiotic/inhibitor) MIC: inhibitor ([4]; without L-arabinose): 16 µg/mL; Combination (antibiotic/inhibitor) MIC: antibiotic ([4]; 0.2%w/v L-arabinose): 2 µg/mL; Combination (antibiotic/inhibitor) MIC: antibiotic ([4]; without L-arabinose): 0.25 µg/mL; FICI ([4]; 0.2%w/v L-arabinose): 0.8; Outcome ([4]; 0.2%w/v L-arabinose): Indifferent (indifferent (0.5–4.0)); FICI ([4]; without L-arabinose): 2; Outcome ([4]; without L-arabinose): indifferent (indifferent (0.5-4.0))
14 | CN(C)CCCN1c2ccccc2Sc2ccc(C(F)(F)F)cc21 [Triflupromazine] |  | > 100 µM | IC50 (Tet(X4) [1]; IC50, UPLC assay): 102 ± 29 µM
